For series [1], the target named is OCT1 (endogenous) + BOB1 (transfected) (Homo sapiens) (UniProt P14859+Q16633). Briefly: cell_activity. Particulars: BOB1 stimulation over endogenous OCT1 alone, HEK293 luciferase; attenuated by compounds 004, 005, 006 at 10 uM.
Series [2] concerns BOB1/OCT1-mediated transcription. Briefly: Luciferase reporter assay (transient transfection, 6xPORE-luc). Type of series: cell-based, human. Particulars: 10 μM in the culture medium. The procedure: FIGS. 1A-C are a combination of graphs showing that compound 005 inhibits BOB1/OCT1-mediated transcription in vitro. HEC293Ea1 cells, known to express endogenous OCT1, were co-transfected with […] reporter, pEV-OBF1 (BOB1) effector, and pCMV-β-gal calibrator plasmids. Luciferase and β-galactosidase activities were measured 48 hours after transfection. The 100% luciferase activity was set as activity in presence of vehicle (10 μM DMSO). […] All experiments are performed at least in triplicates. Bars indicate the mean±SEM. * P<0.05, ** P<0.01, *** P<0.001, **** P<0.0001.
The HEK293E1a cells were seeded at density 1.2×10^4 per well on 48-well plate in DMEM medium containing 10% fetal calf serum. After 24 hours cells were transfected with plasmid mix (300 ng/well) containing specified amounts of the p6×PORE-luc reporter, pEV-OBF1 and pCG-Oct1 effector, pBluescript II KS+ carrier, and pCMV-βgal (for standardization) as previously described. The transfections were carried out in three biological replicates, using Polyethylenimine (PEI 25K, Polysciences Inc.) at the ratio 2:1 to DNA. After 48 hours, cells were washed with PBS, lysed, and measured for luciferase activity, using the Bright-Glo luciferase assay system (Promega), and for β-galactosidase activity in a standard assay.
BOB1 has been described as a coactivator acting in cooperation with the POU-domain proteins OCT1 and OCT2 bound to distinct DNA-motifs either in monomeric or dimeric configurations. […] As an initial functional assay, we examined the ability of the compounds according to the present invention to affect BOB1-OCT1-PORE-mediated transcriptional activation in transient transfection luciferase assay. To this end, we made use of previously generated 6×PORE-luc and reporter plasmid, in which hexamers of the PORE were cloned upstream of the thymidine kinase (tk) minimal promoter and luciferase gene. […] Furthermore, the addition of a plasmid expressing exogenous OCT1 exerted an inhibitory effect on both basal and BOB1-mediated transcription (data not shown). This observation is likely due to the fact that HEK293 cells, like all other mammalian cell types, express OCT1, and further addition of exogenous OCT1 in these cells shifts the BOB1/OCT1 equilibrium out of optimal range, resulting in squelching effect, and in our experimental setup, in about 3-fold stimulation, as compared to that by endogenous OCT1 alone (FIG. 1A). […] Compound 005 was selected for further detailed investigation.
For orientation: Reporter assays use an easily measured gene product as a stand-in for the process of interest.

OCT1 (endogenous) + BOB1 (transfected) (Homo sapiens), sequence (P14859 other isoform, or with tags, fused parts or gaps, chain 1 of 2): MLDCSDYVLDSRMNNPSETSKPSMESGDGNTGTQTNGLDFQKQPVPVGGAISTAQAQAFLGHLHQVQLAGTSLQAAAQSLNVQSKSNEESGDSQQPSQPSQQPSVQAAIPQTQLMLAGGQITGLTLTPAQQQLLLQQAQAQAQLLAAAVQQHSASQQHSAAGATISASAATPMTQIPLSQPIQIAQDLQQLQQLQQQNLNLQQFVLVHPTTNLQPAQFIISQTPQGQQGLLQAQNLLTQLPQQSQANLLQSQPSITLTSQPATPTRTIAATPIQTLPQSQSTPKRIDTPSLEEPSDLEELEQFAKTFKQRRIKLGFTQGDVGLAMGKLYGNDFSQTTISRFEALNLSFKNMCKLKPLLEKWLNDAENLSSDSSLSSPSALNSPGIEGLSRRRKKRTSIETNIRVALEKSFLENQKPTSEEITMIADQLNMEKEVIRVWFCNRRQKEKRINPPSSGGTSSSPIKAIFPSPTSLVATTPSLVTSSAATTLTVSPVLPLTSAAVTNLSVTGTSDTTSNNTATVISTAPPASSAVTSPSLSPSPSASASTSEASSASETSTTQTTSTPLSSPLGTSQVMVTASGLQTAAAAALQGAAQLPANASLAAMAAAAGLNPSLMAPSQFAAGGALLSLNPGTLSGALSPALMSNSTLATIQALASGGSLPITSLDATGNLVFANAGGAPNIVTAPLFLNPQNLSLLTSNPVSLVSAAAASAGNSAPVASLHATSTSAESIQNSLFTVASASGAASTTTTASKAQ
OCT1 (endogenous) + BOB1 (transfected) (Homo sapiens), sequence (Q16633 whole entry, chain 2 of 2): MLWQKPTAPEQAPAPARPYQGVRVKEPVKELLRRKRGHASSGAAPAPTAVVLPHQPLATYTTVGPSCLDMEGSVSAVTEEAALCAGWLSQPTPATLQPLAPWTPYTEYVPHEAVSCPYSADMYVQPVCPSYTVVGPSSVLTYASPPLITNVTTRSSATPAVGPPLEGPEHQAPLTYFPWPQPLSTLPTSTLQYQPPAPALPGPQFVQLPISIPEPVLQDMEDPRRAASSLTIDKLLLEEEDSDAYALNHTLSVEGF

Consider 6xPORE-tk-luc reporter, for which, in series [1], the activity is 3 fold.

Regarding `O=C(Nc1ccc(Br)c(C(F)(F)F)c1)C1CCCCN1c1nc(NCc2cccc(F)c2)nc(N(CCO)CCO)n1` (stereo not drawn) [compound 004, 1-(4-(bis(2-hydroxyethyl)amino)-6-((3-fluorobenzyl)amino)-1,3,5-triazin-2-yl)-N-(4-bromo-3-(trifluoromethyl)phenyl)piperidine-2-carboxamide], in series [2], the “BOB1/OCT1-driven transcription (relative luciferase activity)” value is on record as “significantly attenuated”.

In the case of `O=C(O)CCNc1nc(NCCCc2ccc(F)cc2)nc(N2CCCC(C(=O)N3CCC(Cc4ccccc4)CC3)C2)n1` (stereo not drawn) [compound 006, 3-((4-(3-(4-benzylpiperidine-1-carbonyl)piperidin-1-yl)-6-((3-(4-fluorophenyl)propyl)amino)-1,3,5-triazin-2-yl)amino)propanoic acid], the “BOB1/OCT1-driven transcription (relative luciferase activity)” value in series [2] was “significantly attenuated”.

Source of the values: patent US20250177412A1, “SMALL-MOLECULE INHIBITORS TARGETING THE BOB1/OCT1 INTERFACE” (NANTES UNIVERSITE, priority 2022, published 2025).
